ChEMBL document CHEMBL1671811, “Deconstruction of non-nucleoside reverse transcriptase inhibitors of human immunodeficiency virus type 1 for exploration of the optimization landscape of fragments” (J Med Chem, 2011)

What was measured:
[1] = target: T1, Human immunodeficiency virus type 1 reverse transcriptase (Human immunodeficiency virus 1, UniProt Q72547); assay: Binding affinity to HIV1 reverse transcriptase by surface plasmon resonance based biosensor assay
[2] = target: T1, Human immunodeficiency virus type 1 reverse transcriptase; assay: Inhibition of HIV1 reverse transcriptase

| SMILES | Kd [1] [µM] | IC50 [2] [µM] |
| --- | --- | --- |
| NC(=S)NCCc1ccccc1 | 700 |  |
| O=C(CSc1nncn1-c1ccccc1)Nc1ccccc1 | 1700 |  |
| NS(=O)(=O)c1ccc(NC(=O)COc2ccc(Cl)cc2)cc1 | 30 |  |
| NS(=O)(=O)c1ccc(NC(=O)CSc2nc[nH]n2)cc1 | 1600 |  |
| CC(=O)c1ccccc1OCC(=O)Nc1ccccc1C | 800 |  |
| Cc1ccccc1OCC(=O)Nc1ccc(S(N)(=O)=O)cc1 | 1100 |  |
| Cc1ccc(-n2cnnc2SCC(=O)Nc2ccccc2)cc1 | 800 |  |
| NS(=O)(=O)c1ccc(NC(=O)CSc2nncn2-c2ccccc2)cc1 | 1300 |  |
| Cc1cc(S(N)(=O)=O)ccc1NC(=O)COc1ccc(Cl)cc1C(=O)c1cc(F)cc(C(F)(F)F)c1 |  | 0.0014 |
| S=C(NCCc1ccccc1)Nc1ccccn1 | 6 |  |
| S=C(NCCc1ccccc1)Nc1ccc(Br)cn1 | 2 |  |
